Test systems include DLD-1 colon; DMS 114 small cell lung; DMS 273 small cell lung; KM20L2 colon; LXFL 529 NSCLC; RXF-631 renal; MDA-MB-435; MDA-N; P388/ADR leukemia; PC-3 prostate.
What all share (assay): NCI tumour cell line growth inhibition, 48 h

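48-hour exposure; five concentrations; linearly interpolated endpoints. GI50: concentration for 50% inhibition of growth. TGI marks complete inhibition of growth.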 The source made the active and inactive calls. Rule as the data show it: active = GI50 below about 0.43 µM; inactive = the rest.

Take `N#CC1CCCCCCCCCCC(=O)N(CCCl)C1=O` (stereo not drawn): the TGI with DLD-1 colon, in the assay with DMS 114 small cell lung, in the assay on DMS 273 small cell lung, with KM20L2 colon and in the assay on LXFL 529 NSCLC was above 100 µM each time.
Take `O=c1c2cc(Cl)ccc2sc2cccc(Cl)c12`: the TGI with DMS 273 small cell lung, in the assay on KM20L2 colon, with LXFL 529 NSCLC and in the assay on RXF-631 renal was above 100 µM throughout.
`Cc1cccc(C)c1NC(=O)C(=O)Nn1c(NN)nc2ccccc2c1=O`: the TGI with DMS 114 small cell lung, in the assay with DMS 273 small cell lung, in the assay with KM20L2 colon, in the assay with LXFL 529 NSCLC and with RXF-631 renal was above 100 µM each time.
As to `N#CC1(C#N)C(C#N)(C#N)C12CCCCCC2`, the TGI stood at 10.3 µM in the assay on DLD-1 colon; 43.2 µM in the assay on DMS 114 small cell lung; 52.4 µM in the assay on DMS 273 small cell lung; 32 µM in the assay on KM20L2 colon; 29.8 µM in the assay on LXFL 529 NSCLC.
`NC(N)=NS(=O)(=O)c1ccc(NCCc2c3ccccc3nc3ccccc23)cc1`: the TGI in the assay on DLD-1 colon, in the assay with DMS 114 small cell lung, with DMS 273 small cell lung, in the assay on KM20L2 colon, with LXFL 529 NSCLC and in the assay with RXF-631 renal was above 100 µM in each case.
Take `CC(=O)OCC1OC(n2c(-c3ccc(C)cc3)cc(-c3ccccc3)c(C#N)c2=O)C(OC(C)=O)C(OC(C)=O)C1OC(C)=O` (stereo not drawn): the TGI with DLD-1 colon, with DMS 114 small cell lung, in the assay with KM20L2 colon, in the assay on LXFL 529 NSCLC and in the assay with RXF-631 renal was above 100 µM each time.
As to `CC(C)(c1ccccc1)c1ccc(OC#N)cc1`, the TGI was above 62.5 µM in the assay on DLD-1 colon; above 53.9 µM with DMS 114 small cell lung; 30.7 µM in the assay on DMS 273 small cell lung; above 100 µM in the assay with KM20L2 colon; above 100 µM with LXFL 529 NSCLC.
As to `Cn1cc2ccccc2c1-c1nc(F)nc(OCC(=O)[C@H]2CCC3[C@@H]4CCC5=CC(=O)CC[C@]5(C)C4[C@@H](O)C[C@@]32C)n1` (stereo partly drawn), the TGI with DLD-1 colon is 22.5 µM; in the assay on DMS 114 small cell lung it was 22.5 µM; in the assay on DMS 273 small cell lung it was 36.1 µM; in the assay with KM20L2 colon, above 57 µM; in the assay on LXFL 529 NSCLC it was 9.59 µM; with RXF-631 renal, 6.82 µM.
On to `CC1OC(n2cc(F)c(=O)[nH]c2=O)C=CC1=O` (stereo not drawn), for which the TGI in the assay on DLD-1 colon is 36 µM; with DMS 114 small cell lung, 32.3 µM; in the assay on DMS 273 small cell lung it was 36.1 µM; in the assay with KM20L2 colon, 34.6 µM; in the assay with LXFL 529 NSCLC it was 31.2 µM; in the assay with RXF-631 renal, above 100 µM.
As to `O=C1C(=Cc2c(O)cc(O)cc2O)C(=O)c2ccccc21`, the TGI in the assay on DLD-1 colon was above 55.2 µM; in the assay with DMS 114 small cell lung, above 100 µM; with DMS 273 small cell lung, above 100 µM; in the assay on KM20L2 colon, above 57.6 µM; in the assay with LXFL 529 NSCLC it was above 57.5 µM.
On to `NC(N)=NS(=O)(=O)c1ccc(Nc2c3ccccc3nc3c(C(=O)Nc4ccc(S(N)(=O)=O)cc4)cccc23)cc1`, for which the TGI in the assay with DLD-1 colon was above 100 µM; in the assay with DMS 114 small cell lung, above 100 µM; with DMS 273 small cell lung, above 100 µM; with KM20L2 colon, above 100 µM; in the assay on LXFL 529 NSCLC, 78.5 µM.
Consider `CCCSS[C@H]1NC(=O)[C@H]1NC(=O)COc1ccccc1`, for which the TGI in the assay on DLD-1 colon is 23.2 µM; with DMS 114 small cell lung it was 34.5 µM; in the assay on DMS 273 small cell lung, 31.2 µM; in the assay on KM20L2 colon, 42.4 µM; with LXFL 529 NSCLC, 18.3 µM; in the assay on RXF-631 renal it was 31.6 µM.
As for `COc1cc2c(cc1OC)/C(=C\c1ccccc1N)C(=O)OC2`, the TGI with DLD-1 colon is 29.3 µM; in the assay on DMS 114 small cell lung, 34.7 µM; in the assay with DMS 273 small cell lung it was 25.5 µM; with KM20L2 colon it was 43.4 µM; in the assay with LXFL 529 NSCLC, 17.7 µM; in the assay with RXF-631 renal it was 23.5 µM.
In the case of `COC(C)(C)C/C=C/C(C)=C/C=C/C(C)=C\C=C\C(C)=C\C=C\C=C(C)\C=C\C=C(C)\C=C\C=C(C)\C=C\CC(C)(C)OC`, the GI50 in the assay on DLD-1 colon, in the assay on DMS 114 small cell lung and in the assay with DMS 273 small cell lung was above 150 µg/mL throughout. For the same compound, the TGI in the assay on DLD-1 colon, in the assay with DMS 114 small cell lung and in the assay with DMS 273 small cell lung was above 150 µg/mL throughout. Also, the outcome in the assay on KM20L2 colon, with LXFL 529 NSCLC and with RXF-631 renal was inactive.
On to `CN(C)CC/[N+]([O-])=C(/c1ccccc1)C12CC3CC(CC(C3)C1)C2`, for which the TGI with DLD-1 colon worked out at 32 µM; with DMS 114 small cell lung, 36 µM; in the assay on KM20L2 colon, 24.5 µM; in the assay on LXFL 529 NSCLC, 39.1 µM; with RXF-631 renal it was 32.8 µM.
For the compound `Cc1cc2c(C)nn(Cc3ccc(Cl)cc3)c2c(C#N)c1C`, the TGI with DMS 273 small cell lung, in the assay on KM20L2 colon, with LXFL 529 NSCLC and in the assay with RXF-631 renal was above 100 µM each time.
As for `O=Cc1c(O)c(C(=O)Nc2ccc3[nH]c(=O)[nH]c3c2)cc2ccccc12`, the TGI in the assay with DLD-1 colon, in the assay with DMS 114 small cell lung, in the assay with DMS 273 small cell lung, with KM20L2 colon, with LXFL 529 NSCLC and with RXF-631 renal was above 100 µM each time.
On to `CC(C)OP(=O)(NC(=S)c1ccccc1)OC(C)C`, for which the TGI in the assay with DLD-1 colon, in the assay with DMS 114 small cell lung, with DMS 273 small cell lung, in the assay with KM20L2 colon and in the assay on LXFL 529 NSCLC was above 100 µM in each case.
For the compound `CN1C(=O)C2C(C1=O)C1(O)c3ccccc3C2(N)c2ccccc21` (stereo not drawn), the TGI in the assay with DLD-1 colon, in the assay on DMS 114 small cell lung, in the assay on DMS 273 small cell lung and in the assay with RXF-631 renal was above 100 µM in each case.
Regarding `COc1ccc(OCC(=O)O)c(C(=O)CCC(=O)O)c1`, the TGI in the assay on DLD-1 colon, in the assay on DMS 114 small cell lung, in the assay with DMS 273 small cell lung, with LXFL 529 NSCLC and in the assay on RXF-631 renal was above 100 µM each time.
Consider `NCCCNCCCCNC(=O)C(O)NC(=O)CCCCCCN=C(N)N` (stereo not drawn), for which the TGI with DLD-1 colon was 750 µM; in the assay on DMS 114 small cell lung it was 581 µM; in the assay on DMS 273 small cell lung it was above 750 µM; with KM20L2 colon, 734 µM; in the assay on MDA-MB-435, above 3760 µM; in the assay on MDA-N, above 5000 µM. In addition, the TGI was 750 µM with P388/ADR leukemia and above 5000 µM in the assay on PC-3 prostate. For the same compound, the GI50 in the assay with MDA-MB-435 is 1960 µM; in the assay with MDA-N, above 750 µM; with PC-3 prostate, 1590 µM.
On to `Cc1cc(C)cc(NC(N)=S)c1`, for which the TGI in the assay with DLD-1 colon, in the assay with DMS 114 small cell lung, with DMS 273 small cell lung, in the assay on KM20L2 colon, in the assay on LXFL 529 NSCLC and in the assay on RXF-631 renal was above 100 µM throughout.
As to `Cc1cccc(NC(=O)c2cccc([N+](=O)[O-])c2O)c1C`, the TGI in the assay on DLD-1 colon was above 100 µM; in the assay on DMS 114 small cell lung, above 100 µM; with DMS 273 small cell lung, 97.7 µM; with KM20L2 colon, 83.2 µM; with LXFL 529 NSCLC it was above 100 µM; in the assay with MDA-MB-435, above 100 µM. The compound also showed a TGI with PC-3 prostate above 100 µM.
With `CCN(CC)c1ccc(N=Nc2ccc(-c3nc4ccc[n+](C)c4o3)cc2)cc1`, the TGI is 20.1 µM with DLD-1 colon; 15.8 µM in the assay with DMS 114 small cell lung; 23.3 µM with DMS 273 small cell lung; 25.9 µM in the assay with KM20L2 colon; 16.7 µM in the assay with LXFL 529 NSCLC; above 100 µM in the assay on RXF-631 renal.
With `O=C(O)CCc1nn2c(nc1=O)sc1ccc3ccccc3c12`, the TGI with DLD-1 colon, in the assay on DMS 114 small cell lung, in the assay with DMS 273 small cell lung, in the assay on KM20L2 colon, in the assay on LXFL 529 NSCLC and in the assay with RXF-631 renal was above 100 µM throughout.
As to `N#CC1CC2(CCN1C(=O)c1ccccc1)OCCO2` (stereo not drawn), the TGI in the assay with DLD-1 colon, in the assay on DMS 114 small cell lung, in the assay on DMS 273 small cell lung, in the assay with KM20L2 colon and with LXFL 529 NSCLC was above 100 µM throughout.
Take `COC(=O)Nc1nc2ccc(Br)cc2[nH]1`: the TGI was above 100 µM in the assay on DLD-1 colon; above 100 µM with DMS 114 small cell lung; above 100 µM with DMS 273 small cell lung; 64.1 µM in the assay with KM20L2 colon; above 100 µM in the assay with LXFL 529 NSCLC.
Regarding `CCOC(=O)c1[nH]c(COC(C)=O)c2c1CCCCCCCCCC2`, the TGI in the assay with DLD-1 colon, with DMS 114 small cell lung, in the assay with DMS 273 small cell lung, with KM20L2 colon and in the assay with LXFL 529 NSCLC was above 100 µM in each case.
Consider `C=CCC1C(=O)CC2(C)CC(=O)C(CC=C)C12C` (stereo not drawn), for which the TGI in the assay on DLD-1 colon, with DMS 114 small cell lung, in the assay on DMS 273 small cell lung, in the assay with KM20L2 colon and in the assay on LXFL 529 NSCLC was above 100 µM throughout.
For `CC1(C)C2C=CC1C(=O)CC2` (stereo not drawn), the TGI in the assay on DLD-1 colon, in the assay on DMS 273 small cell lung, in the assay with KM20L2 colon, in the assay with LXFL 529 NSCLC and in the assay on RXF-631 renal was above 100 µM in each case.

(Values after PubChem BioAssay (NCI).)
